Data from patent US10357576B2, “18F-labelled folate/antifolate analogues” (MERCK & CIE, priority 2012, dated 2019).

Assays:
[1] = system: KB tumor xenografts; assay: PET imaging studies in KB tumor-bearing mice; type: in vivo
Method: PET experiments were performed with an eXplore VISTA PET/CT tomograph (GE). Tumor bearing mice were injected with 10-18 MBq of 3′-aza-2′-[^18F]fluorofolic acid (100-150 μl per injection) via lateral tail vein. […] Animals were anesthetized with isoflurane in an air/oxygen mixture. The PET scans were acquired from 120-150 min p.i. After acquisition, PET data were reconstructed in user-defined time frames. The fused datasets of PET and CT were analyzed with PMOD (version 3.2) software.
Dynamic PET scans of mice 1.5-90 min p.i. of 3′-aza-2′-[^18F]fluorofolic acid and at 60-150 min p.i. were performed. Static PET scans of [^18F]-2′3′-aza-folic acid were typically performed with a scan time from 120-150 min p.i. […] The uptake in other non-target organs was negligible, the only exceptions being the liver, kidneys and salivary glands.

[2] = Stability experiments using glutathione / S9-fraction; type: in vitro ADME, human; settings: 37° C., 1 h, radio-UPLC
Method: (§1) Radio-UPLC: For stability studies, an ultra-performance liquid chromatography (UPLC™, Waters) system, equipped with an Acquity UPLC BEH C18 column (1.7 μm, 2.1×50 mm, Waters) and a coincidence detector (FlowStar LB513, Berthold) was used with following solvent system: eluent A was a NaH2PO4/Na2HPO4 buffer (0.05 M, pH 7.4) and eluent B was acetonitrile. A gradient from 0-4.0 min 100%-40% A, at a flow rate of 0.6 ml/min was used.
Glutathione (0.1 M, 100 μl), S9-fraction (20 mg/ml, 50 μl) and KH2PO4/K2HPO4 buffer (pH 7.4, 0.5 M, 200 μl) were diluted with water (612 μl) to a volume of […] and [^18F]-3′-aza-2′-fluorofolic acid (38 μl, approx. 15 MBq) was added. The mixture was incubated at 37° C. At several time points aliquots (100 μl) were drawn and the reaction was stopped by pouring the sample into ice-cold methanol (200 μl). Each sample was diluted with NaH2PO4/Na2HPO4 buffer (pH 7.4, 0.05 M, 600 μl). Every time point was performed as duplicates and analyzed on a radio-UPLC system.

[3] = Stability experiments using liver microsomes (mouse); type: in vitro ADME; settings: 37° C., 1 h, NADPH regenerating system, radio-UPLC
Text: General: Reagents and solvents were purchased from Sigma-Aldrich Chemie GmbH, Acros Organics or VWR International AG if nothing else is mentioned. All chemicals were used as supplied. Human and mouse (female CD-1) microsomes and the NADPH regenerating systems were purchased from BD biosciences.
as §1
To a mixture of KH2PO4/K2HPO4 buffer (pH 7.4, 0.5 M, 200 μl), NADPH regenerating system A (50 μl), NADPH regenerating system B (10 μl), an aliquot of [^18F]-3′-aza-2′-fluorofolic acid (38 μl, approx. 15 MBq) was added and filled up with water (677 μl) to a volume of 975 μl and preincubated at 37° C. Then, mouse or human liver microsomes (20 mg/ml, 25 μl) were added and incubated at 37° C. After several time points (0, 20, 40 and 60 min) aliquots (100 μl) were drawn and the enzymatical reaction was stopped by purring the solution into ice-cold methanol (200 μl). […] Every time point was performed as a triplicate and analyzed on a radio-UPLC system. […]

[4] = Ex vivo metabolite studies in KB tumor bearing mice; settings: i.v., radio-UPLC
Method: as §1
For the determination of radiometabolites in vivo, 3′-aza-2′-[^18F]fluorofolic acid (60-70 MBq) was intravenously injected into KB tumor bearing mice (n=2). After 5 min, blood samples were drawn from the opposite vein and the animals were sacrificed 30 min after radiotracer injection. The whole blood, liver, tumor and urine were collected. Blood samples were centrifuged at 5000 g for 5 min at 4° C. The proteins of the plasma samples were precipitated by addition of the same volume of ice-cold methanol followed by centrifugation. The supernatants of the plasma and the urine sample were diluted with PBS buffer and analyzed by radio-UPLC. Liver and tumor tissue were homogenized in an equal volume of PBS using a PT 1200 C Polytron (Kinematica AG), respectively. After addition of the same volume of ice-cold MeOH, the mixture was centrifuged at 5000 g for 5 min and 4° C. The supernatant was cleared from remaining proteins by addition of ice-cold methanol, followed by centrifugation. The resulting supernatant fractions were diluted with PBS buffer and analyzed by radio-UPLC.

[5] = system: KB cells; assay: In vitro cell uptake and internalization studies; type: cell-based, human; settings: two hours of incubation, 37° C.
Method: Cell Culture: KB cells (human cervical carcinoma cell line, HeLa subclone; ACC-136) were purchased from the German Collection of Microorganisms and Cell Cultures (DSMZ, Braunschweig, Germany). The cells were cultured as monolayers at 37° C. in a humidified atmosphere containing 5% CO2. […] FFRPMI medium was supplemented with 10% heat-inactivated fetal calf serum (FCS, as the only source of folate), L-glutamine and antibiotics (penicillin/streptomycin/fungizone). Routine culture treatment was performed twice a week with EDTA (2.5 mmol/l) in PBS.
KB cells were seeded in 12-well plates to grow over night (˜700,000 cells in 2 ml FFRPMI medium/well). [^18F]-3′-aza-2′-fluorofolic acid ([…], 170 kBq) was added to each well. […] After incubation for 1 h or 2 h at 37° C. the cells were washed three times with PBS to determine total cell uptake of 3′-aza-2′-[^18F]fluorofolic acid. […] The cell suspensions were transferred to 4 ml tubes and the samples were counted in a −counter. After homogenization by vortex, the concentration of proteins was determined for each sample by a Micro BCA Protein Assay kit in order to standardize measured radioactivity to the average content of 0.3 mg protein in a single well. […]

[6] = PET, pemetrexed 400 μg 60 min prior to the radiotracer

Uptake in the tumor tissue and in the kidneys with coinjected folic acid ([1]; PET 120-150 min p.i., excess folic acid 100 μg): reduced uptake
Accumulation in the liver after preinjection of pemetrexed [1, 6]: very strong reduction
Kidney uptake after preinjection of pemetrexed [1, 6]: reduced kidney uptake
Tumor uptake after preinjection of pemetrexed [1, 6]: high tumor uptake
Specific uptake in KB tumor xenografts ([1]; quoted with static baseline PET scan 120-150 min p.i.): 12.6±1.8 % ID/g
Uptake in other non-target organs (except liver, kidneys and salivary glands) ([1]; static baseline PET scan 120-150 min p.i.): negligible
Stability with glutathione and S9-fraction [2]: completely stable
Stability in mouse liver microsomes [3]: completely stable
Radiometabolites in liver ([4]; 30 min p.i.): signs of metabolism
Radiometabolites in tumor ([4]; 30 min p.i.): no detectable amounts of metabolites
Radiometabolites in urine ([4]; 30 min p.i.): no detectable amounts of metabolites
Radiometabolites in plasma ([4]; plasma sample 5 min p.i.): no detectable amounts of metabolites
Radiometabolites in plasma ([4]; plasma sample 30 min p.i.): no detectable amounts of metabolites
Compound: Nc1nc2ncc(CNc3ccc(C(=O)N[C@@H](CCC(=O)O)C(=O)O)c([18F])n3)nc2c(=O)[nH]1 [3′-aza-2′-[^18F]fluorofolic acid]
Total cell uptake [5]: about 78.17%
Internalized fraction ([5]; stripping buffer pH 3): 18.56%
